Where “and” joins values, the source holds several entries; their conditions need not be identical. Identical values can stand only once.

One series concerns P. salmonis. The series can be described thus: Minimum inhibitory concentration of florfenicol on P. salmonis in infected SHK-1 cells. The series is classed as cell-based. As for the experimental part:
FIGS. 1 and 2. Cytotoxicity of andrographolide sodium bisulfite (PubChem CID: 133555830, “AP1”) and andrographolide sulphonate (PubChem CID: 72191954, “AP2”) in combination with florfenicol in SHK-1 cells treated and infected with P. salmonis. Cells were treated with AP1 (FIG. 1) and AP2 (FIG. 2) at 4.6 and 9 ng/mL and florfenicol in the range of 0,125; 0,250; 0.5 and […]. LDH analysis was done day 12 post-infection. Cells+Ps, cells infected without treatment; Vehicle+Ps, cells infected and treated with ethanol. “Flo sin AP” means florfenicol without an andrographolide; “Flo+AP” means florfenicol with an andrographolide. The percentage of cytotoxicity was calculated with respect to the control of total lysis of cells and the negative control (cells without treatment and infection) with the control florfenicol without AP. […] ANOVA y Fisher.
The effect of andrographolide on the antibiotic action of florfenicol, was corroborated by LDH in the supernatant in cells with different treatments showing the synergistic effect of andrographolide (AP) in the range of 0.125; 0.25 and 0.5 μg/mL of the antibiotic.

Series [1] is described as follows: Florfenicol residue in muscle of coho salmon after treatment (Table 1). The class given is in vivo. Set-up: florfenicol (residue): unit not given here. The conditions noted are these: for florfenicol (residue): florfenicol 20 mg/kg. As for the experimental part:
Florfenicol (“FF”) was administered at a dose of 20 mg/kg at 15 days and at 30 days before harvesting. Andrographolide and seaweed powder were mixed with conventional fish feed at a dose of 1.056 kg seaweed powder and 0.044 kg andrographolide (“NATCONTROL”) per ton of feed. The NORMAL group corresponds to fish fed antibiotic without andrographolide.
So the farmer can treat with antibiotic closer to harvest, and harvested fish have far less antibiotic residue in their meat. […] This enables one to use a smaller dose of antibiotic to achieve the same effect. The residues of florfenicol at various days post-treatment indicate a more-rapid metabolization of florfenicol in fish muscle receiving andrographolide (<24 or not detected).

In series [2] the test system is coho salmon. Put plainly: Mortality and cause of death in coho salmon. The class given is in vivo. An excerpt: FIG. 4 measures accumulated mortality over 14 days for coho salmon treated with florfenicol alone and combined with andrographolide.
(§1) Odd-numbered cages received feed medicated with both florfenicol and with andrographolide (0.044 kg andrographolide per ton of feed) for 15 days. Even-numbered cages received feed medicated with only florfenicol. X Axis=day; Y axis (left)=accumulated mortality; Y axis (right)=periodic mortality. For each period, the left bar is florfenicol alone, the right bar is florfenicol and andrographolide. For cumulative mortality, the upper line (at date #5) is florfenicol alone, the lower line is florfenicol and andrographolide.
In addition, it changes the causes of mortality. Table 2 compares the cause of death for the two groups.

In series [3] the test system is coho salmon. The series can be described thus: Quality of the fish at harvest time. The class given is in vivo.
From the text: as §1
Table 3 compares the quality of the fish at harvest time. Premium Quality (“PRM”) fish have an absence of skin lesions and adequate body weight. A total of 332,315 fish were treated with florfenicol+andrographolide (“Impares Nat Control”) and 301,334 fish were treated with florfenicol alone (“Pares Normal”).

The nature of series [4]: Plasma concentration of florfenicol over time. The series is classed as in vivo, coho salmon.
From the text: FIG. 3. Plasma concentration of florfenicol over time: distribution of levels of plasma florfenicol. Y axis=Florfenicol plasma concentration (g/L). X axis=time (t=0, 5 days and 12 days). For each of the three days reported, the left bar is for fish treated with florfenicol alone, the right bar is for fish treated with florfenicol and also fed andrographolide.
as §1

Where [5] appears, read: florfenicol combined with the andrographolide (AP1 or AP2).
Where [6] appears, read: absence of skin lesions and adequate body weight.
Where [7] appears, read: andrographolide co-fed with florfenicol, coho salmon.

For `C=C1CCC2[C@](C)(CO)[C@H](O)CC[C@@]2(C)[C@@H]1CC(C1C(=O)OC[C@H]1O)S(=O)(=O)[O-].[Na+]` (stereo partly shown) [AP1, andrographolide sodium bisulfite], the “minimum inhibitory concentration of florfenicol” value (from here on “minimum inhibitory concentration”) with P. salmonis (setting [5]) worked out at 0.25 mg/L.

As for `CS(=O)(=O)c1ccc([C@@H](O)[C@@H](CF)NC(=O)C(Cl)Cl)cc1` [florfenicol], in the series on P. salmonis (without andrographolide), the “minimum inhibitory concentration” value was 0.5 mg/L. Further, the “florfenicol (residue)” value in series [1] (Cage No. 101, andrographolide diet, Test Report No. 44.217-22) was under 24. For the same compound, the “florfenicol (residue)” value in series [1] (Cage No. 102, normal diet (no andrographolide), Test Report No. 44.218-22) is 270 and 363 and 502. Also, the “florfenicol (residue)” value in series [1] (Cage No. 103, andrographolide diet, Test Report No. 44.215-22) is reported as under 24. Also, in series [1] (fish receiving andrographolide, various days post-treatment), the “residues of florfenicol in fish muscle” value is under 24. Moreover, in the series on coho salmon [2] (Example 3), the “Cause of death: Mechanical damage” value was 41.6 % of Total Deaths, the “Cause of death: No apparent cause” value is on record as 9.3 % of Total Deaths, the “Cause of death: Runt (very small) fish” value is reported as 0 % of Total Deaths and the “Cause of death: SRS (skin lesions)” value was 25.0 % of Total Deaths. The “Time of death: In holding pen before harvesting” value in the series on coho salmon [2] (Example 3) was 10.9 % of Total Deaths. Moreover, in the series with coho salmon [3], the “FA fish, %” value is on record as 4.65%; the “FA fish, No” value was 14012 No; the “GA1 fish, %” value stood at 17.87%; the “GA1 fish, No” value is 53835 No. In the series on coho salmon [3], the “GA2 fish, %” value turned out to be 1.426%; the “GA2 fish, No” value worked out at 4297 No; the “percentage of Premium Quality fish” value is recorded as 76.1%. Further, in the series on coho salmon [3] (setting [6]), the “PRM (Premium Quality) fish, %” value was found to be 76.06% and the “PRM (Premium Quality) fish, No” value worked out at 229190 No.

Take andrographolide sulphonate [AP2]: the “minimum inhibitory concentration” value with P. salmonis (setting [5]) was 0.25 mg/L.

`C=C1CC[C@@H]2[C@](C)(CO)[C@H](O)CC[C@@]2(C)[C@@H]1C/C=C1/C(=O)OC[C@H]1O` [andrographolide]: the “antibiotic (florfenicol) concentration in plasma” value in series [4] (setting [7]) is listed as “increases antibiotic concentration in plasma”. For the same compound, the “average plasma florfenicol levels” value in series [4] (fish treated with florfenicol and fed andrographolide vs florfenicol alone, 5 and 12 days) is “higher average plasma florfenicol levels”. The “in vivo metabolism and clearance of florfenicol” value in series [1] (setting [7]) is “hastens the in vivo metabolism and clearance of florfenicol”. In addition, the mortality entry in the series on coho salmon [2] (andrographolide with florfenicol vs florfenicol alone) is listed as “decreases mortality”.
